Experiment in all cases: microbe, parasite or virus in culture
For assay [1], the system named is Pseudotyped HCV GT1a particles (HCVpp). It counts as cell-based, HCV GT1a H77 strain. The note with it: Hepatitis C virus, 72 h, read-out: HCVpp GT-1a (EC50, μM).
Assay [2] deals with Pseudotyped HCV GT1b particles (HCVpp). It counts as cell-based, HCV GT1b Con1 strain. Conditions: Hepatitis C virus, 72 h, read-out: HCVpp GT-1b (EC50, μM).
Assay [3] has as its system pseudotyped VSV G particles (VSVpp). It counts as cell-based. Conditions: Vesicular stomatitis virus, 72 h, read-out: VSVpp (EC50, μM).

A word on the EC50: it is the midpoint of the concentration-response curve. With `Nc1nc(Nc2cc(F)cc(C(F)(F)F)c2)n[nH]1` [Compound I-57, N^3-(3-Fluoro-5-trifluoromethyl-phenyl)-1H-[1,2,4]triazole-3,5-diamine], the figures for the EC50 in assay [1], in assay [2] and in assay [3] were 0.146 µM, 0.624 µM and 100 µM, respectively.

As to `Nc1nc(Nc2cc(Cl)c(F)c(C(F)(F)F)c2)n[nH]1` [Compound I-60, N^3-(3-Chloro-4-fluoro-5-trifluoromethyl-phenyl)-1H-[1,2,4]triazole-3,5-diamine], the EC50 turned out to be 0.071 µM in assay [1], 0.489 µM in assay [2] and 33.3 µM in assay [3].

For the compound `Nc1nc(Nc2ccc(C(=O)N3CCOCC3)cc2)n[nH]1` [Compound I-23, [4-(5-Amino-1H-[1,2,4]triazol-3-ylamino)-phenyl]-morpholin-4-yl-methanone], the EC50 in assay [1], in assay [2] and in assay [3] was 100 µM throughout.

As to `CN(C)C(=O)c1ccc(Nc2n[nH]c(N)n2)cc1` [Compound I-24, 4-(5-Amino-1H-[1,2,4]triazol-3-ylamino)-N,N-dimethyl-benzamide], the EC50 in assay [1], in assay [2] and in assay [3] was 100 µM throughout.

In the case of `CC(C)(C)C#Cc1c(Cl)cc(Nc2n[nH]c(N)n2)cc1Cl` [Compound I-79, N^3-[3,5-Dichloro-4-(3,3-dimethyl-but-1-ynyl)-phenyl]-1H-[1,2,4]triazole-3,5-diamine], the EC50 in assay [1] came out at 0.051 µM; in assay [2], 3.31 µM; in assay [3], 66 µM.

`N#Cc1cc(Cl)cc(Nc2n[nH]c(N)n2)c1` [Compound I-48, 3-(5-Amino-1H-[1,2,4]triazol-3-ylamino)-5-chloro-benzonitrile]: the results for the EC50 in assay [1], in assay [2] and in assay [3] were 0.558 µM, 5.65 µM and 100 µM, respectively.

For `N#Cc1c(Cl)cc(Nc2n[nH]c(N)n2)cc1Cl` [Compound I-2, 4-(5-Amino-1H-[1,2,4]triazol-3-ylamino)-2,6-dichloro-benzonitrile], the figures for the EC50 in assay [1], in assay [2] and in assay [3] were 0.009 µM, 0.277 µM and 64.6 µM, respectively.

As for `CS(=O)(=O)c1cccc(Nc2n[nH]c(N)n2)c1` [Compound I-21, N*3*-(3-Methanesulfonyl-phenyl)-1H-[1,2,4]triazole-3,5-diamine], the figures for the EC50 in assay [1], in assay [2] and in assay [3] were 12.6 µM, 41.4 µM and 100 µM, respectively.

In the case of `CN(C)S(=O)(=O)c1ccc(Nc2n[nH]c(N)n2)cc1` [Compound I-26, 4-(5-Amino-1H-[1,2,4]triazol-3-ylamino)-N,N-dimethyl-benzenesulfonamide], the EC50 in assay [1], in assay [2] and in assay [3] was 100 µM throughout.

For the compound `CNS(=O)(=O)c1ccc(Nc2n[nH]c(N)n2)cc1` [Compound I-22, 4-(5-Amino-1H-[1,2,4]triazol-3-ylamino)-N-methyl-benzenesulfonamide], the 50% effective concentration (EC50) in assay [1], in assay [2] and in assay [3] was 100 µM throughout.

With `C#Cc1ccc(Nc2n[nH]c(N)n2)cc1Cl` [Compound I-9, N*3*-(3-Chloro-4-ethynyl-phenyl)-1H-[1,2,4]triazole-3,5-diamine], the EC50 in assay [1] was 0.161 µM; in assay [2], 3.08 µM; in assay [3] it was 45.5 µM.

For the compound `Nc1nc(Nc2ccc(S(N)(=O)=O)cc2)n[nH]1` [Compound I-25, 4-(5-Amino-1H-[1,2,4]triazol-3-ylamino)-benzenesulfonamide], the EC50 was determined as 86.4 µM in assay [1], 100 µM in assay [2] and 100 µM in assay [3].

For the compound `Nc1nc(Nc2ccc(Cl)c(C(F)(F)F)c2)n[nH]1` [Compound I-51, N^3-(4-Chloro-3-trifluoromethyl-phenyl)-1H-[1,2,4]triazole-3,5-diamine], the EC50 was 0.475 µM in assay [1], 3.44 µM in assay [2] and 53.7 µM in assay [3].

Turning to `CC(C)(C)C#Cc1ccc(Nc2n[nH]c(N)n2)cc1Cl` [Compound I-80, N^3-[3-Chloro-4-(3,3-dimethyl-but-1-ynyl)-phenyl]-1H-[1,2,4]triazole-3,5-diamine], the EC50 came out at 1.12 µM in assay [1], 11.2 µM in assay [2] and 91.6 µM in assay [3].
